Measurements reported in US20070087400A1, “Covalent tethering of functional groups to proteins and substrates therefor” (priority 2004, published 2007).
Read-outs that look alike come from different tables or passages of the source.

Columns and labels:
DhaA.WT = DhaA.WT (Rhodococcus rhodochrous, UniProt P0A3G2); experiment: Hydrolysis of Cl-alkanes, pH-indicator dye (phenol red) assay; format: biochemical
Text: To study the effect of a point mutation on the activity of DhaA (WT or mutant) hydrolysis of Cl-alkanes, a pH-indicator dye system as described by Holloway et al. (1998) was employed.

DhaA.H272F = DhaA.H272F (Rhodococcus rhodochrous, UniProt P0A3G2, H272F); experiment: In vitro binding of Cl-alkanes with functional groups, SDS-PAGE with fluoroimager or HRP-streptavidin; details: dose dependent, 0.04-125 μM tested
Text: (§1) Then the proteins were resolved on SDS-PAGE.

CHO-K1 cells [1] = test system: CHO-K1 cells
Experimental: (§2) Fresh media was then added to cells, and the cells were returned to the CO2 incubator at 37° C. The level of fluorescence in cells in 96 well plates was measured on fluorescent plate reader CytoFluor II (Beckman) at Eex/Eem equal 480/520 nm and 540/575 nm for carboxyfluorescein-and carboxytetramethylrhodamine-modified substrates, respectively. Fluorescent images of the cells were taken on inverted epifluorescent microscope Axiovert-100 (Carl Zeiss) with filter sets appropriate for detection of FITC and carboxytetramethylrhodamine.

E. coli = experiment: Permeability of plasma membrane of prokaryotic cells to substrates
[2] = target: tetracysteine domain in a recombinant protein; details: cited from earlier work
[3] = test system: DhaA.H272 mutants, i.e. H272F/G/A/Q; experiment: In vitro binding and pretreatment blocking, SDS-PAGE; design: species or system Rhodococcus rhodochrous
Text: FIG. 10 illustrates that pretreatment of a mutant DhaA with a substrate, biotin-C10H21NO2—Cl, blocks binding of another substrate. DhaA.WT-lanes 1 and 2; DhaA.H272 mutants: F, lanes 3 and 4; G, lanes 5 and 6; A, lanes 7 and 8; and Q, lanes 9 and 10. Samples 2, 4, 6, 8, and 10 were pretreated with biotin-C10H21NO2—Cl.
as §1

CHO-K1 cells [4] = experiment: Toxicity of Cl-alkanes, CellTiter-Glo Luminescence Cell Viability Assay; format: cell-based
Experimental: To study the toxicity of Cl-alkanes, CHO-K1 cells were plated in 96 well plates to a density of 5,000 cells per well. […] Viability of the cells was measured with CellTiter-Glo™ Luminescence Cell Viability Assay (Promega) according to the manufacturer's protocol. Generally, 100 μl of CellTiter-Glo™ reagent was added directly to the cells and the luminescence was recorded at 10 minutes using a DYNEX MLX microtiter plate luminometer.

CHO-K1 cells [5] = experiment: Permeability of cell membrane to substrates (uptake and wash-out)
Experimental: as §2

[6] = Tethering of R.Luc-DhaA fusions to streptavidin-coated plates via biotin Cl-alkane; details: pretreatment of R.Luc-connector-DhaA.H272F
Experimental: Translated proteins were contacted with biotin-C10H21N1O2—Cl substrate at 25 μM (final concentration), for 60 minutes at room temperature. Unbound biotin-C10H21N1O2—Cl was removed by gel-filtration on Sephadex G-25 prepackaged columns (Amersham Biosciences). Collected fractions of R.Luc-connector-DhaA fusions were placed in SA-coated 96-well plate for 1 hour at room temperature, unbound proteins were washed out and luciferase activity was measured.

streptavidin = streptavidin (Streptomyces avidinii, UniProt P22629); details: surface plasmon resonance; cited from earlier work

OCCCCCCCCCCCl [1-Cl-alkane-10-decanol]
initial rate of hydrolysis (IRH) (DhaA.WT; first 60 seconds after enzyme addition): much higher than the IRH of 1-Cl-decane

O=C(CCCC[C@@H]1SC[C@@H]2NC(=O)N[C@@H]21)NCCOCCOCCCCCCCl [biotin-C10H21NO2—Cl]
concentration at which binding to DhaA.H272F could be detected (DhaA.H272F): 0.2 µM | permeability of plasma membrane of CHO-K1 cells (CHO-K1 cells [1]): permeable | permeability of plasma membrane of E. coli (E. coli): permeable

O=C1OC2(c3ccccc31)c1ccc(O)c([As]3SCCS3)c1Oc1c2ccc(O)c1[As]1SCCS1 [FLASH, 4′,5′-bis(1,3,2-dithioarsolan-2-yl)fluorescein]
dissociation constant [2]: nanomolar or lower

N-{2-[2-(6-Chlorohexyloxy)-ethoxy]-ethyl}-tetramethylrhodamine-5-(and -6)-amide
binding to DhaA.H272F/G/A/Q [3]: bound | toxicity after a 4 hour treatment (CHO-K1 cells [4]; 100 μM (the highest concentration tested)): no toxicity | maximum non-toxic concentration (CHO-K1 cells [4]; 24 hour treatment): 6.25 µM | IC50 (CHO-K1 cells [4]; 24 hour treatment, read-out: IC50 of reduction of relative luminescence): ~100 µM | permeability of plasma membrane of CHO-K1 cells (CHO-K1 cells [5]): permeable | permeability of plasma membrane of E. coli (E. coli): permeable | decrease of efficiency of capturing by pretreatment with non-biotinylated substrate [6]: about 80%

O=C(O)CCCC[C@@H]1SC[C@@H]2NC(=O)N[C@@H]21 [biotin]
on-rate (streptavidin): 5e+06 M⁻¹ s⁻¹

CCCCCl [1-Cl-butane]
activity of the wild-type enzyme with the substrate (DhaA.WT; 0.1 mg/ml of enzyme and 10 mM substrate at pH 7.0-8.2): 5 units/mg of protein

O=C(NCCOCCOCCCCCCCl)c1ccc(-c2c3ccc(=O)cc-3oc3cc(O)ccc23)c(C(=O)O)c1 [N-{2-[2-(6-Chlorohexyloxy)-ethoxyl-ethyl}-fluorescein-5-amide]
permeability of plasma membrane of CHO-K1 cells (CHO-K1 cells [5]): did not cross the plasma membrane
